Test results reported in the supplement of paper PMC10307832.

Legend:
Test in all cases: relative viability (nuclei count vs DMSO), 5 days (fraction); higher = more cells survive
[1] = compound: CC1=C(C(=NN1)C)CC2=C(C3=C(S2)N(C(=O)N(C3=O)C)CC(C)C)C(=O)N4C[C@@H](CO4)O + CC(=O)Nc1cccc(-n2c(=O)n(C3CC3)c(=O)c3c(Nc4ccc(I)cc4F)n(C)c(=O)c(C)c32)c1 [Trametinib] (partner 0.02 µM)
Method in brief: (§1)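 Cells from lung cancer lines were seeded into 1536-well plates and, one day later, dosed by pin tool. Treatments were either a single drug or a fixed dose of an anchor drug with five library-drug doses (not always all listed) in √10 steps. After 5 days, nuclei were stained in a one-step fixation (final 0.05% Triton X-100, 1% formaldehyde, 1 ug/ml Hoechst) and counted on 4× images, and relative viability is the treated-to-vehicle nuclei ratio, as the median of duplicate plates.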

[2] = compound: Cc1ccccc1C(C(=O)NC1CCCCC1)N(C(=O)Cn1ccnc1C)c1cccc(F)c1 [IDH-C35] + CS(=O)(=O)N1CCN(Cc2cc3nc(-c4cccc5[nH]ncc45)nc(N4CCOCC4)c3s2)CC1 [Pictilisib] (partner 1 µM)
Method in brief: as §1

[3] = compound: CC1=C(C(=NN1)C)CC2=C(C3=C(S2)N(C(=O)N(C3=O)C)CC(C)C)C(=O)N4C[C@@H](CO4)O + CCNC(=O)c1noc(-c2cc(C(C)C)c(O)cc2O)c1-c1ccc(CN2CCOCC2)cc1 [Luminespib] (partner 0.01 µM)
Method in brief: as §1

[4] = compound: Cc1ccccc1C(C(=O)NC1CCCCC1)N(C(=O)Cn1ccnc1C)c1cccc(F)c1 [IDH-C35] + O=C(c1cc(Cc2n[nH]c(=O)c3ccccc23)ccc1F)N1CCN(C(=O)C2CC2)CC1 [Olaparib] (partner 8 µM)
Method in brief: as §1

Cell Line | relative viability ([1]; first compound 0.0025 µM) | relative viability ([1]; first compound 0.007906 µM) | relative viability ([1]; first compound 0.025 µM) | relative viability ([1]; first compound 0.07906 µM) | relative viability ([1]; first compound 0.25 µM) | relative viability ([2]; first compound 0.08 µM) | relative viability ([2]; first compound 0.253 µM) | relative viability ([2]; first compound 0.8 µM) | relative viability ([2]; first compound 2.53 µM) | relative viability ([2]; first compound 8 µM) | relative viability ([3]; first compound 0.0025 µM) | relative viability ([3]; first compound 0.007906 µM) | relative viability ([3]; first compound 0.025 µM) | relative viability ([3]; first compound 0.07906 µM) | relative viability ([3]; first compound 0.25 µM) | relative viability ([4]; first compound 0.08 µM) | relative viability ([4]; first compound 0.253 µM) | relative viability ([4]; first compound 0.8 µM) | relative viability ([4]; first compound 2.53 µM) | relative viability ([4]; first compound 8 µM)
LOU-NH91 | 0.802 | 0.756 | 0.812 | 0.826 | 0.792 | 0.528 | 0.548 | 0.516 | 0.496 | 0.531 | 0.371 | 0.359 | 0.331 | 0.363 | 0.223 | 0.949 | 0.976 | 0.888 | 0.852 | 0.919
LU99A | 0.522 | 0.606 | 0.452 | 0.57 | 0.532 | 0.337 | 0.299 | 0.326 | 0.317 | 0.361 | 0.337 | 0.297 | 0.203 | 0.224 | 0.237 | 0.254 | 0.247 | 0.291 | 0.259 | 0.248
LXF-289 | 0.705 | 0.702 | 0.669 | 0.641 | 0.689 | 0.813 | 0.767 | 0.689 | 0.85 | 0.725 | 0.774 | 0.684 | 0.56 | 0.613 | 0.783 | 1.1 | 0.996 | 1.03 | 1.01 | 1.08
NCI-H522 | 0.77 | 0.768 | 0.701 | 0.606 | 0.657 | – | – | – | – | – | 1.29 | 1.22 | 1.11 | 0.644 | 0.586 | 0.594 | 0.687 | 0.657 | 0.59 | 0.746
NCI-H1299 | – | – | – | – | – | 0.818 | 0.671 | 0.96 | 0.759 | 0.745 | – | – | – | – | – | 1.04 | 0.977 | 0.979 | 1.04 | 0.998
NCI-H1563 | – | – | – | – | – | 0.646 | 0.682 | 0.662 | 0.619 | 0.619 | 0.553 | 0.542 | 0.524 | 0.492 | 0.509 | – | – | – | – | –
NCI-H1623 | – | – | – | – | – | – | – | – | – | – | 0.64 | 0.601 | 0.503 | 0.499 | 0.554 | – | – | – | – | –
NCI-H1648 | 0.593 | 0.431 | 0.635 | 0.356 | 0.52 | – | – | – | – | – | – | – | – | – | – | – | 0.765 | 0.801 | 0.681 | 0.782
NCI-H1703 | – | – | – | – | – | 0.235 | 0.264 | 0.285 | 0.262 | 0.206 | – | – | – | – | – | 0.293 | 0.47 | 0.441 | 0.383 | 0.434
NCI-H2342 | 0.932 | 0.751 | 0.724 | 0.854 | 0.976 | – | – | – | – | – | 0.768 | 0.79 | 0.855 | 0.784 | 0.602 | 0.435 | 0.49 | 0.41 | 0.467 | 0.377
SW 900 | 0.666 | 0.951 | 0.787 | 0.74 | 0.8 | – | – | – | – | – | 0.186 | 0.182 | 0.16 | 0.189 | 0.15 | 0.915 | 0.819 | – | 1.02 | 0.83
